Measured values as given in patent publication US8710224B2, “Heterocyclic compounds as CCR2B antagonists” (AstraZeneca AB, priority 2004, dated 2014).

Biological target: T1, recombinant human CCR5 receptor (Homo sapiens, UniProt P51681)
T1 construct: expressed in transfected cells; host or cells: Chinese hamster ovary (CHO) cells; membranes
Assay: Radioligand binding assay for inhibition of the binding of MIP-1α
Conditions: displacement of 0.1 nM iodinated MIP-1α; membranes of Chinese hamster ovary cells expressing CCR5
Protocol: Biological Assay for the Ability of Compounds to Inhibit the Binding of MIP-1α This ability is assessed using an in vitro radioligand binding assay. Membranes are prepared from Chinese hamster ovary cells which express the recombinant human CCR5 receptor. These membranes are incubated with 0.1 nM iodinated MIP-1α, scintillation proximity beads and various concentrations of the compounds of the invention in 96-well plates. The amount of iodinated MIP-1α bound to the receptor is then determined by scintillation counting.

T1 sequence (P51681 whole entry): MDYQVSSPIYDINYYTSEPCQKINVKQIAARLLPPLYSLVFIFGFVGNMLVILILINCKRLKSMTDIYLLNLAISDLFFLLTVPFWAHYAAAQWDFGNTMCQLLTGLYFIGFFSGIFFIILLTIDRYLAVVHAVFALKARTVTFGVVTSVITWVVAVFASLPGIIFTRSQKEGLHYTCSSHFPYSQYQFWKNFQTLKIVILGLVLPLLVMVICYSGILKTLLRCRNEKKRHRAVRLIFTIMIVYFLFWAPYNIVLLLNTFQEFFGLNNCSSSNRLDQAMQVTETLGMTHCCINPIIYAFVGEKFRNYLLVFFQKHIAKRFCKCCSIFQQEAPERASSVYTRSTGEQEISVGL

IC50 [µM]	SMILES
< 10	CN1CCN(C)C(CN2CCN(C(=O)Nc3ccc(Cl)c(Cl)c3)CC2)C1 (centres unmarked) [Example 209, 1-{[1,4-Dimethylpiperazin-3-yl]methyl}-N-(3,4-dichlorophenyl)piperazine-4-carboxamide]
< 10	O=C(Nc1ccc(Cl)c(Cl)c1)N1CCN(C(=O)[C@H]2CN(CCCc3ncc(F)cn3)CCN2)CC1 [Example 273, N-(3,4-dichlorophenyl)-4-({(2R)-4-[3-(5-fluoropyrimidin-2-yl)propyl]piperazin-2-yl}carbonyl)piperazine-1-carboxamide]
< 10	O=C(Nc1cccc(Cl)c1)N1CCN(C[C@@H]2CCCN(CCc3ccccc3)C2)CC1 [Example 180, N-(3-chlorophenyl)-4-{[(3R)-1-(2-phenylethyl)piperidin-3-yl]methyl} piperazine-1-carboxamide]
< 10	CC(=O)N1CCC(N2CCC[C@@H](CN3CCN(C(=O)Nc4ccc(Cl)c(Cl)c4)CC3)C2)CC1 [Example 175, 4-{[(3S)-1′-Acetyl-1,4′-bipiperidin-3-yl]methyl}-N-(3,4-dichlorophenyl)piperazine-1-carboxamide]
< 10	O=C(Nc1ccc(Cl)c(Cl)c1)N1CCN(C(=O)[C@H]2CN(C3CCCC3)CCN2)CC1 [Example 276, 4-{[(2R)-4-Cyclopentylpiperazin-2-yl]carbonyl}-N-(3,4-dichlorophenyl)piperazine-1-carboxamide]
< 10	CC(Cc1ccccc1)N1CCCC(CN2CCN(C(=O)Nc3ccccc3)CC2)C1 (stereo in doubt) [Example 246, 4-[[(3R)-1-(1-methyl-2-phenyl-ethyl)-3-piperidyl]methyl]-N-phenyl-piperazine-1-carboxamide]
< 10	O=C(Nc1ccc(C(F)(F)F)cc1)N1CCN(C[C@@H]2CCCN(C3CC3)C2)CC1 [Example 111, 4-{[(3S)-1-cyclopropylpiperidin-3-yl]methyl}-N-[4-(trifluoromethyl)phenyl]piperazine-1-carboxamide]
< 10	N#Cc1ccc(OCCN2CCC[C@@H](CN3CCN(C(=O)Nc4ccc(Cl)c(Cl)c4)CC3)C2)cc1 [Example 170, 4-({(3S)-1-[2-(4-Cyanophenoxy)ethyl]piperidin-3-yl}methyl)-N-(3,4-dichlorophenyl)piperazine-1-carboxamide]
< 10	Nc1ncccc1CN1CCCC(CN2CCN(C(=O)Nc3ccc(F)c(Cl)c3)CC2)C1 (centres unmarked) [Example 266, 4-({1-[(2-aminopyridin-3-yl)methyl]piperidin-3-yl}methyl)-N-(3-chloro-4-fluorophenyl)piperazine-1-carboxamide]
< 10	C[C@@H](CC(C)(C)O)N1CCO[C@@H](CN2CCN(C(=O)Nc3ccc(F)c(Cl)c3)CC2)C1 [Example 235, N-(3-chloro-4-fluorophenyl)-4-({(2S)-4-[(1S)-3-hydroxy-1,3-dimethylbutyl]morpholin-2-yl}methyl)piperazine-1-carboxamide]
< 10	CC(C)N1CCN[C@@H](C(=O)N2CCN(C(=O)Nc3cccc(Cl)c3)CC2)C1 [Example 211, N-(3-chlorophenyl)-4-{[(2R)-4-isopropylpiperazin-2-yl]carbonyl}piperazine-1-carboxamide]
< 10	O=C(Nc1ccc(Cl)c(Cl)c1)N1CCN(C[C@H]2CN(C3CCC(O)CC3)CCO2)CC1 (stereo partly drawn) [Example 122, N-(3,4-dichlorophenyl)-4-{[(2S)-4-(4-hydroxycyclohexyl)morpholin-2-yl]methyl}piperazine-1-carboxamide]
< 10	O=C(Nc1ccccc1)N1CCN(CC2CCCN(C3CC3)C2)CC1 (stereo in doubt) [Example 183, N-Phenyl-4-{[(3R)-1-(2-cyclopropyl)piperidin-3-yl]methyl}piperazine-1-carboxamide]
< 10	O=C(Nc1ccc(Cl)c(Cl)c1)N1CCN(C[C@@H]2CCCN(Cc3ccc(Cl)nc3)C2)CC1 [Example 256, 4-({(3R)-1-[(6-chloropyridin-3-yl)methyl]piperidin-3-yl}methyl)-N-(3,4-dichlorophenyl)piperazine-1-carboxamide]
